Molecular target: T1, HSET in DLD1 4N cells (Homo sapiens, UniProt Q9BW19)
T1 construct: overlapped with the signal from the antibody-probed endogenous HSET protein; endogenous in cells; host or cells: DLD1 4N cells
T1 sequence (Q9BW19 1-673): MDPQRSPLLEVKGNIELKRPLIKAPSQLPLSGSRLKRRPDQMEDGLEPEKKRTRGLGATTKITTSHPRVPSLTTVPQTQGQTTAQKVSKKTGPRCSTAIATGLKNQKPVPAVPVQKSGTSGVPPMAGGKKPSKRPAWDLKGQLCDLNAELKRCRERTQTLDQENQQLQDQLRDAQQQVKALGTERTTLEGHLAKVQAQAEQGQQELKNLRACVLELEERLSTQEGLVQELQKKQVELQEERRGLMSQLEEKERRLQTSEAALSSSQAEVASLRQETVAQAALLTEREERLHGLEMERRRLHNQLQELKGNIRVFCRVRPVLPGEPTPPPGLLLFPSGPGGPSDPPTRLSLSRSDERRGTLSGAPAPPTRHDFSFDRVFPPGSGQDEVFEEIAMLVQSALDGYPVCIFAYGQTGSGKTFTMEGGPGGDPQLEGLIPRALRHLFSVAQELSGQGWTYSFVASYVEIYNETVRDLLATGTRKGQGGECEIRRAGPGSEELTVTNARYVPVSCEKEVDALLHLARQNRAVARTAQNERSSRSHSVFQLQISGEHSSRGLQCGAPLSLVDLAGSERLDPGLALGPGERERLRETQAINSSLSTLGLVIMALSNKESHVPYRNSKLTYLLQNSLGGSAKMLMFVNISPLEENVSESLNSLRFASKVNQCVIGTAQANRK
Assay: Click probe localization target engagement imaging in DLD1 4N cells
Assay type: cell-based
Settings: for Average Pixel intensity: DLD1 4N, Tz-Cy5 800nM
Protocol: The Cy-5 tetrazine dye selected for this experiment is not cell-permeable, thus fixation and permeabilization of cells were necessary prior to its addition. Experiments were conducted in DLD1 4N cells and, as a negative control, isogenic 2N DLD1 HSET KO cells in which HSET expression was prevented by the disruption of the HSET gene using CRISPR. Cells were treated first with proTAME for 2 h to accumulate mitotic events, followed by treatment with the TCO probe 40 for 45 min. The live cells were then fixed and permeabilized before treatment with the tetrazine-Cy5 dye and incubation to allow the IEDDA reaction to occur. Additionally, the cells were stained for the endogenous HSET protein using indirect immunofluorescence and imaged to observe the fluorescence from both the TCO probe and antibody-labeled HSET. […] A 3 μM concentration of the probe 40 gave an acceptable signal-to-noise ratio of around 2:1. Even under these optimal conditions, some residual uniform cytoplasmic Cy5 signal was observed within the cells. However, a clear Cy5 decoration of the mitotic spindle was seen, which overlapped with the signal from the antibody-probed endogenous HSET protein (Figures 2A and S6). […] We observed a 14–17-fold increase in signal in DLD1 4N cells treated with 40 relative to tetrazine-Cy5 alone. […] Comparing the intensity of click probe labeling coincident with the mitotic spindle in DLD1 4N cells to that in DLD1 HSET KO cells after both were treated with 40, we observed a twofold higher signal in the former.
Direct target engagement of active inhibitor 36 was measured by calculating its capacity to displace the TCO-containing probe 40. 4N DLD1 cells and DLD1 HSET KO cells (negative control) were plated in 96-well ibidi μ-Clear plates (IB-89626, ibidi). Cells were first treated for 2 h with 8 μM pro-TAME (I-440–01M, R&D system) to accumulate mitotic cells and were then treated with 8 μM MG-132 (S2619, SelleckChem) and 3 μM 40, alone or together with active inhibitor 36 in DMEM media with 1% FBS for 45 min. Cells were then washed three times in DMEM, with the second wash being incubated for 10 min to ensure the optimal reduction of unspecific compound binding. After an additional PBS wash, cells were then fixed in 4% PFA/PBS (15670799, Thermo Scientific) prior to incubation with 400 nM tetraszine-Cy5 (CLK-015-05, Jena Biosciences) in 1.5% FBS/PBS for 10 min at room temperature. Cells were permeabilized by the addition of 0.5% TritonX-100/PBS for 5 min before being stained overnight for Pericentrin (1:1500 ab28144 mouse anti-PCNT, Abcam) and KIFC1 (1:1500 12313S rabbit anti-KIFC1, Cell Signaling Technologies). Secondary antibodies Alexa Fluor 488 donkey antirabbit and Alexa Fluor 555 donkey antimouse (1:1500, A21206 and A31570, respectively, Life Technologies) were added together with 1 μg/mL DAPI (D9542, Sigma) in 1.5% FBS in PBS.
Plates were imaged at 40× using a Zeiss LSM980 confocal microscope with Airyscan 2. The subsequent analysis and quantification were performed using 3D image segmentation with the Arivis4D software. Mitotic cells were segmented by selecting for the highest density (integrated DAPI intensity/total volume), and the mitotic pole areas were segmented using the Pericentrin signal. The signal of the click probe (Cy5) and total KIFC1 (FITC) was measured on the mitotic pole area, and both were normalized to the control condition containing 40 probe alone. The ratio of probe per target (click probe pole integrated intensity signal/KIFC1 pole integrated intensity signal) was used to calculate the occupancy of the probe in the target protein and normalized to the control condition containing 40 probe alone (n > 100 for each replicate, two replicates per concentration point).

Compound	displacement of TCO probe 40 from HSET in cells (in words) (competition with 3 μM 40, up to 10 μM 36)	Average Pixel intensity (5μM, Panel A: 3 quick washes at room temperature)	Average Pixel intensity (5μM, Panel B: 2 quick washes then 1 at 37 °C for 5 minutes)	Average Pixel intensity (5μM, Panel C: 2 quick washes then 1 at 37 °C for 10 minutes)	Average Pixel intensity (10μM, Panel A: 3 quick washes at room temperature)	Average Pixel intensity (10μM, Panel B: 2 quick washes then 1 at 37 °C for 5 minutes)	Average Pixel intensity (10μM, Panel C: 2 quick washes then 1 at 37 °C for 10 minutes)
CCCOC(=O)c1sc(NC(=O)C[C@H](CCCN(C)C)NC(=O)c2cccc(-c3noc(C)n3)c2)nc1C [Compound 36, Propyl (S)-2-(6-(Dimethylamino)-3-(3-(5-methyl-1,2,4-oxadiazol-3-yl)benzamido)hexanamido)-4-methylthiazole-5-carboxylate]	dose-dependent manner						
CCCOC(=O)c1sc(NC(=O)C[C@H](CCCN(C)C(=O)O[C@@H]2CC/C=C/CCC2)NC(=O)c2cccc(-c3noc(C)n3)c2)nc1C [Compound 38, Propyl 2-((S)-6-(((((S,E)-Cyclooct-4-en-1-yl)oxy)carbonyl)(methyl)amino)-3-(3-(5-methyl-1,2,4-oxadiazol-3-yl)benzamido)hexanamido)-4-methylthiazole-5-carboxylate]		5372	6057	4723	7167	7628	6337
